Test results from ChEMBL document CHEMBL1141575, “Preparation and in vitro biological evaluation of tetrapyrrole ethanolamide derivatives as potential anticancer agents” (Bioorg Med Chem Lett, 2008).

Tests used:
[1] = test system: HeLa; test: Survival of human HeLa cells at 0.1 uM under deem light after 96 hrs by MTT assay relative to control; type: functional; settings: read-out: Survival
[2] = test system: HeLa; test: Survival of human HeLa cells at 10 uM under deem light after 96 hrs by MTT assay relative to control; type: functional; settings: read-out: Survival
[3] = test system: HeLa; test: Survival of human HeLa cells at 50 uM under deem light after 96 hrs by MTT assay relative to control; type: functional; settings: read-out: Survival
[4] = test system: HeLa; test: Survival of human HeLa cells at 100 uM under deem light after 96 hrs by MTT assay relative to control; type: functional; settings: read-out: Survival
[5] = test system: NCI-H69; test: Survival of human H69 cells at 0.1 uM under deem light after 96 hrs by MTT assay relative to control; type: functional; settings: NCI-H69, 96 h, read-out: Survival
[6] = test system: NCI-H69; test: Survival of human H69 cells at 10 uM under deem light after 96 hrs by MTT assay relative to control; type: functional; settings: NCI-H69, 96 h, read-out: Survival
[7] = test system: NCI-H69; test: Survival of human H69 cells at 50 uM under deem light after 96 hrs by MTT assay relative to control; type: functional; settings: NCI-H69, 96 h, read-out: Survival
[8] = test system: NCI-H69; test: Survival of human H69 cells at 100 uM under deem light after 96 hrs by MTT assay relative to control; type: functional; settings: NCI-H69, 96 h, read-out: Survival
[9] = Survival of human H209 cells at 0.1 uM under deem light after 96 hrs by MTT assay relative to control; type: functional; settings: NCI-H209, 96 h, read-out: Survival
[10] = Survival of human H209 cells at 10 uM under deem light after 96 hrs by MTT assay relative to control; type: functional; settings: NCI-H209, 96 h, read-out: Survival
[11] = Survival of human H209 cells at 50 uM under deem light after 96 hrs by MTT assay relative to control; type: functional; settings: NCI-H209, 96 h, read-out: Survival
[12] = Survival of human H209 cells at 100 uM under deem light after 96 hrs by MTT assay relative to control; type: functional; settings: NCI-H209, 96 h, read-out: Survival
[13] = Survival of human 2780.9S cells at 0.1 uM under deem light after 96 hrs by MTT assay relative to control; type: functional; settings: read-out: Survival
[14] = Survival of human 2780.9S cells at 10 uM under deem light after 96 hrs by MTT assay relative to control; type: functional; settings: read-out: Survival
[15] = Survival of human 2780.9S cells at 50 uM under deem light after 96 hrs by MTT assay relative to control; type: functional; settings: read-out: Survival
[16] = Survival of human 2780.9S cells at 100 uM under deem light after 96 hrs by MTT assay relative to control; type: functional; settings: read-out: Survival
[17] = Survival of human MDA-MB cells at 0.1 uM under deem light after 96 hrs by MTT assay relative to control; type: functional; settings: read-out: Survival
[18] = Survival of human MDA-MB cells at 10 uM under deem light after 96 hrs by MTT assay relative to control; type: functional; settings: read-out: Survival
[19] = Survival of human MDA-MB cells at 50 uM under deem light after 96 hrs by MTT assay relative to control; type: functional; settings: read-out: Survival
[20] = Survival of human MDA-MB cells at 100 uM under deem light after 96 hrs by MTT assay relative to control; type: functional; settings: read-out: Survival
[21] = test system: SiHa; test: Cytotoxicity against human SIHA cells under deem light after 96 hrs by MTT assay; type: functional, cell-based
[22] = test system: Raji; test: Cytotoxicity against human Raji cells under deem light after 96 hrs by MTT assay; type: functional, cell-based
[23] = Cytotoxicity against human MDA-MB cells under deem light after 96 hrs by MTT assay; type: functional, cell-based
[24] = test system: K562; test: Cytotoxicity against human K562 cells under deem light after 96 hrs by MTT assay; type: functional, cell-based; settings: K562, 96 h
[25] = test system: HeLa; test: Cytotoxicity against human HeLa cells under deem light after 96 hrs by MTT assay; type: functional, cell-based
[26] = test system: NCI-H69; test: Cytotoxicity against human H69 cells under deem light after 96 hrs by MTT assay; type: functional, cell-based; settings: NCI-H69, 96 h
[27] = test system: Daudi; test: Cytotoxicity against human Daudi cells under deem light after 96 hrs by MTT assay; type: functional, cell-based
[28] = Cytotoxicity against human 2780.9S cells under deem light after 96 hrs by MTT assay; type: functional, cell-based
[29] = Photohemolysis in human RBC at 250 nM in absence of light; type: ADME, cell-based, Erythrocyte; settings: human red blood cells, read-out: Activity
[30] = Photohemolysis in human RBC at 190 nM under exposure to light for 10 mins; type: ADME, cell-based, Erythrocyte; settings: human red blood cells, read-out: Activity
[31] = Photohemolysis in human RBC assessed as concentration required to 50% hemolysis under light exposure for 5 mins; type: ADME, cell-based, Erythrocyte; settings: human red blood cells, read-out: Activity
[32] = Photohemolysis in human RBC assessed as concentration required to 50% hemolysis under light exposure for 10 mins; type: ADME, cell-based, Erythrocyte; settings: human red blood cells, read-out: Activity
[33] = test system: SiHa; test: Survival of human SIHA cells at 1 uM under deem light after 96 hrs by MTT assay relative to control; type: functional; settings: read-out: Survival
[34] = test system: K562; test: Survival of human K562 cells at 1 uM under deem light after 96 hrs by MTT assay relative to control; type: functional; settings: K562, 96 h, read-out: Survival
[35] = test system: Raji; test: Survival of human Raji cells at 1 uM under deem light after 96 hrs by MTT assay relative to control; type: functional; settings: read-out: Survival
[36] = test system: HeLa; test: Survival of human HeLa cells at 1 uM under deem light after 96 hrs by MTT assay relative to control; type: functional; settings: read-out: Survival
[37] = test system: NCI-H69; test: Survival of human H69 cells at 1 uM under deem light after 96 hrs by MTT assay relative to control; type: functional; settings: NCI-H69, 96 h, read-out: Survival
[38] = Survival of human H209 cells at 1 uM under deem light after 96 hrs by MTT assay relative to control; type: functional; settings: NCI-H209, 96 h, read-out: Survival
[39] = Survival of human 2780.9S cells at 1 uM under deem light after 96 hrs by MTT assay relative to control; type: functional; settings: read-out: Survival
[40] = Survival of human MDA-MB cells at 1 uM under deem light after 96 hrs by MTT assay relative to control; type: functional; settings: read-out: Survival
[41] = test system: SiHa; test: Survival of human SIHA cells at 10 uM under deem light after 96 hrs by MTT assay relative to control; type: functional; settings: read-out: Survival
[42] = test system: SiHa; test: Survival of human SIHA cells at 50 uM under deem light after 96 hrs by MTT assay relative to control; type: functional; settings: read-out: Survival
[43] = test system: SiHa; test: Survival of human SIHA cells at 100 uM under deem light after 96 hrs by MTT assay relative to control; type: functional; settings: read-out: Survival
[44] = test system: K562; test: Survival of human K562 cells at 0.1 uM under deem light after 96 hrs by MTT assay relative to control; type: functional; settings: K562, 96 h, read-out: Survival
[45] = test system: K562; test: Survival of human K562 cells at 10 uM under deem light after 96 hrs by MTT assay relative to control; type: functional; settings: K562, 96 h, read-out: Survival
[46] = test system: K562; test: Survival of human K562 cells at 50 uM under deem light after 96 hrs by MTT assay relative to control; type: functional; settings: K562, 96 h, read-out: Survival
[47] = test system: K562; test: Survival of human K562 cells at 100 uM under deem light after 96 hrs by MTT assay relative to control; type: functional; settings: K562, 96 h, read-out: Survival
[48] = test system: Raji; test: Survival of human Raji cells at 0.1 uM under deem light after 96 hrs by MTT assay relative to control; type: functional; settings: read-out: Survival
[49] = test system: Raji; test: Survival of human Raji cells at 10 uM under deem light after 96 hrs by MTT assay relative to control; type: functional; settings: read-out: Survival
[50] = test system: Raji; test: Survival of human Raji cells at 50 uM under deem light after 96 hrs by MTT assay relative to control; type: functional; settings: read-out: Survival
[51] = test system: Raji; test: Survival of human Raji cells at 100 uM under deem light after 96 hrs by MTT assay relative to control; type: functional; settings: read-out: Survival

## C=Cc1c(C)c2cc3nc(c(CC(=O)OC)c4[nH]c(cc5nc(cc1[nH]2)C(C)=C5CC)c(C)c4C(=O)NCCO)C(CCC(=O)OC)C3C (stereo unspecified) [PHEOPHORBIDE A ETHANOLAMIDE]
[1]
  viability at 0.1 µM: 126%
[2]
  viability at 10 µM: 113%
[3]
  viability at 50 µM: 6.3%
[4]
  viability at 100 µM: 7.8%
[5]
  viability at 0.1 µM: 95.7%
[6]
  viability at 10 µM: 98.4%
[7]
  viability at 50 µM: 58.7%
[8]
  viability at 100 µM: 14.4%
[9]
  viability at 0.1 µM: 102%
[10]
  viability at 10 µM: 106%
[11]
  viability at 50 µM: 59.4%
[12]
  viability at 100 µM: 5.2%
[13]
  viability at 0.1 µM: 98.8%
[14]
  viability at 10 µM: 99%
[15]
  viability at 50 µM: 1.7%
[16]
  viability at 100 µM: 1.7%
[17]
  viability at 0.1 µM: 110%
[18]
  viability at 10 µM: 107%
[19]
  viability at 50 µM: 1.6%
[20]
  viability at 100 µM: 1.6%
[21]
  IC50: 35 µM
[22]
  IC50: 35 µM
[23]
  IC50: 35 µM
[24]
  IC50: 35 µM
[25]
  IC50: 35 µM
[26]
  IC50: 55 µM
[27]
  IC50: 35 µM
[28]
  IC50: 35 µM
[29]
  hemolysis at 0.25 µM: 17%
[30]
  hemolysis at 10 min, 0.19 µM: 100%
[31]
  HC50 at 5 min: 80 nM
[32]
  HC50 at 10 min: 140 nM
[33]
  viability at 1 µM: 97.8%
[34]
  viability at 1 µM: 113%
[35]
  viability at 1 µM: 119%
[36]
  viability at 1 µM: 114%
[37]
  viability at 1 µM: 101%
[38]
  viability at 1 µM: 102%
[39]
  viability at 1 µM: 117%
[40]
  viability at 1 µM: 121%
[41]
  viability at 10 µM: 99.9%
[42]
  viability at 50 µM: 1.2%
[43]
  viability at 100 µM: 1.1%
[44]
  viability at 0.1 µM: 129%
[45]
  viability at 10 µM: 115%
[46]
  viability at 50 µM: 6.1%
[47]
  viability at 100 µM: 2.9%
[48]
  viability at 0.1 µM: 118%
[49]
  viability at 10 µM: 121%
[50]
  viability at 50 µM: 2.5%
[51]
  viability at 100 µM: 3.3%
